# Values quoted from earlier work, collected in US20120115745A1, “METHODS FOR PREDICTING SENSITIVITY TO TREATMENT WITH A TARGETED TYROSINE KINASE INHIBITOR” (priority 2010, published 2012).
# Columns and labels:
# [1] = target: unrelated receptor tyrosine kinases, soluble tyrosine kinases and serine/threonine kinases; conditions: less activity than against VEGF and PDGF receptor families
# [2] = system: tumor cells that are dependent on mutant, constitutively active, FLT3 and KIT kinases
compound,measurement,setting,value
"Cc1ccc(F)c(NC(=O)Nc2ccc(-c3cccc4[nH]nc(N)c34)cc2)c1 [ABT-869, N-(4-(3-amino-1H-indazol-4-yl)phenyl)-N′-(2-fluoro-5-methylphenyl)urea]",IC50,[1],> 1000 nM
same,anti-proliferative and apoptotic effects on tumor cells,[2],potent anti-proliferative and apoptotic effects
